Columns and labels:
[1] = system: beet armyworm (BAW; Spodoptera exigua: Lepidoptera); assay: 128-well diet tray assay on beet armyworm (BAW 50); format: in vivo; conditions: 144 h, read-out: BAW 50
Method: (§1) Bioassays on beet armyworm (BAW; Spodoptera exigua: Lepidoptera) were conducted using either a 96-well microtiter plate-based high throughput (HTS) bioassay or a 128-well diet tray assay. The HTS assay is based on a modification of Lewer et al. J. Nat. Prod. 2006, 69, 1506. BAW eggs were placed on top of artificial diet (100 μL) in each well of a 96-well microtiter plate. The diet was pretreated with test compounds (12 μg dissolved in 30 μL of DMSO-acetone-H2O mixture) layered on top of the diet using a liquid handling system and then allowed to dry for several hours. Infested plates were then covered with a layer of sterile cotton batting and the plate lid, and then held in the dark at 29° C. Mortality was recorded at 6 days post-treatment. Each plate had six replicates. The percent mortality was calculated from the average of the six replicates. In the case of the 128-well diet assay, three to five second instar BAW larvae were placed in each well (3 mL) of the diet tray that had been previously filled with 1 mL of artificial diet to which 50 ug/cm^2 of the test compound (dissolved in 50 μL of 90:10 acetone-water mixture) had been applied (to each of eight wells) and then allowed to dry. Trays were covered with a clear self-adhesive cover, and held at 25° C., 14:10 light-dark for six days. Percent mortality was recorded for the larvae in each well; activity in the eight wells was then averaged. In Table 4, under both the BAW HTS and BAW 50 headings, an “A” means that the compound was tested and at least 50 percent mortality was observed whereas, “B” means that either (1) the compound was tested and less than 50 percent mortality was observed or (2) the compound was not tested.

[2] = system: beet armyworm (BAW; Spodoptera exigua: Lepidoptera); assay: 96-well microtiter plate-based high throughput (HTS) bioassay on beet armyworm (BAW HTS); format: in vivo; conditions: 144 h, read-out: BAW HTS
Method: as §1

With `CCO[C@@H]1[C@@H](OC)[C@H](C)O[C@@H](OC(=O)Nc2ccc(/N=N/c3ccc(OC(F)(F)C(F)(F)F)cc3)cc2)[C@@H]1OC` [Compound 22, [4-(4-Pentafluoroethyloxyphenylazo)-phenyl]-carbamic acid (2S,3R,4R,5S,6S)-4-ethoxy-3,5-dimethoxy-6-methyl-tetrahydropyran-2-yl ester] the pest or weed control at 50 µg/cm2, 50 µg/cm2 [1] was over 50% and the pest or weed control at 12 µg/well, 12 µg/well [2] was over 50%.

Source: patent US8394774B2, “Pesticidal compositions” (Dow AgroSciences, LLC., priority 2009, dated 2013)
